This is an account of results in patent US11661404B2, “Prodrug compounds activated by AKR1C3 and their use for treating hyperproliferative disorders” (priority 2018, dated 2023).

The subject of data set [1] is wild-type PLC/PRF/5 hepatocellular carcinoma cells. The experiment in a line: Anti-proliferative IC50 assay, wild-type PLC/PRF/5. The settings on record: for IC50: Homo sapiens, PLC-PRF-5. Type of data set: cell-based, human. How it is done: Four hundred cells were seeded in a volume of 100 μL in each well of a 96-well plate. The cells were left in a humidified incubator (37° C., 5% CO2) for 2 hours in order to enable attachment to the surface of the wells prior to compound addition. All compounds were prepared as stocks in DMSO and stored at −80° C. Frozen stocks of compounds were thawed immediately prior to addition to cells. Working solutions of each compound were made in α-MEM+5% FBS (v/v) at 3 times the required final concentration for the top well. The final concentration of DMSO in the α-MEM solution was ensured to not exceed 1% of the total volume. 50 μL of the working solution was added to the top wells (in duplicates) and gently mixed. The solubility of some compounds precluded the working solution in α-MEM to be 3 times the desired top well concentration. […] A 3-fold serial dilution was carried out along the plate starting from the top well. The first column of wells on the plate served as blanks (containing α-MEM+FBS) and the second column served as control wells (containing cells with no compound added). Following compound addition, the plates were incubated for 4 hours in a humidified incubator (37° C., 5% CO2).
Following the 4 hour compound exposure, the 96-well plates were washed three times by aspirating media with an Immuno Washer (Nunc) and each well replaced with 150 μL of α-MEM+5% (v/v) FBS+1% (v/v) P/S. The plates were left in a humidified incubator (37° C., 5% CO2) for 5 days to enable cell growth. The cells in 96-well plates were fixed 5 days after compound exposure by adding 50 μL of a 40% (w/v) trichloroacetic acid (TCA) solution so as to obtain a final TCA concentration of 10% in each well. The plates were left in the refrigerator (4° C.) for 1 hour and subsequently rinsed 3 times in tap water. Any excess water was left to drain and the cells were stained with 50 μL of 0.4% (w/v) sulforhodamine B (SRB). The plates with the SRB stain were left in the dark for 30 minutes. Excess stain was removed from the wells by rinsing the plates 4 times in water containing 1% (v/v) acetic acid. The stain was solubilised by adding 100 μL of 10 mM unbuffered Tris (pH 10.5) to each well and the plates were left in a shaker in a dark environment at room temperature for at least 1 hour. The absorbance values of the wells were determined by an ELx 808 Absorbance Microplate Reader (Bio-Tek Instruments, Winooski, Vt., USA), with the wavelength of the measurement filter set at 490 nm and a reference filter set at 450 nm. The absorbance of the reference filter was subtracted from the measurement filter to obtain a final absorbance of λ490-450 nm. The absorbance data was analysed and IC50 values determined by the KC4 microplate data analysis software (KC4™ V3.4, Bio-Tek).
Anti-proliferative IC50 assays were repeated as described above including the addition of 3 μM SN34037, a selective and potent small molecule inhibitor of AKR1C3.
Materials and methods used are as described for Example 9.

Data set [2] concerns wild-type HCT116 colon cancer cells. Put plainly: Anti-proliferative IC50 under oxic and anoxic conditions. Type of data set: cell-based, human. The settings on record: for IC50: Homo sapiens, HCT-116; for Hypoxic Cytotoxicity Ratio (HCR): oxic vs anoxic IC50, HCT116-WT. The source says: PR-104A was initially designed and optimised as a hypoxia-selective cytotoxin (Patterson et al, Clinical Cancer Research, 2007, 13, 3922-3932). In the context of an AKR1C3-activated prodrug, this route of activation is considered off-mechanism and may potentially be undesirable, leading to off-target toxicities in a subject. Preferred compounds of the invention have been determined to be substantially resistant to hypoxia-dependent activation and cytotoxicity in wild-type HCT116 colon cancer cells. HCT116 cells were treated with compounds of the invention under either oxic or anoxic conditions and then their degree of anti-proliferative activity determined.
Selected compounds were evaluated for cytotoxic potential (IC50) under anoxic conditions. The same procedures as described above for Examples 9-11 were carried out in a Bactron anoxic chamber (Sheldon Manufacturing Inc) with internal 37° C. incubators where palladium catalyst scrubbed gas (90% N2, 5% H2, 5% CO2) ensured severe anoxia (<0.001% O2) in the whole chamber. All materials required (including cells) were taken into the chamber through two cycles of vacuum and gassing with 100% N2, followed by a single cycle with 5% CO2 and 5% hydrogen in nitrogen. All experimental materials were placed in the anoxic chamber at least 3 days prior to the day required for the experiment in order to remove any traces of residual O2. The medium used for the 96-well plates in the anoxic chamber consisted of α-MEM+10% (v/v) FBS+1% (v/v) additives (1 M β-D-Glucose and 20 mM 2′-Deoxycytidine).

Data set [3] has as its system AKR1C3 mixed MCLs. The settings on record: cited from earlier work.
The nature of data set [4]: Solubility by HPLC in water and lactate buffer. Type of data set: physicochemical. The note with it: lactate buffer (pH 4), room temperature. The protocol:
The solubility and stability of compound 641 was studied by HPLC in lactate buffer (pH 4) and water as the free base and the mesylate salt (641.Ms) at 0° C. and room temperature (RT). […] However, this was improved considerably by formulation as the mesylate salt, producing a solubility of greater than 100 mmol/L in lactate buffer and greater than 70 mmol/L in water. […] This stability was improved considerably by reducing the temperature of the solution to 0° C.

The mark [5] stands for this setting: read-out: PLC/PRF/5-WT Anti-proliferative IC50.
Setting [6] is: with 3 μM SN34037, read-out: PLC/PRF/5-WT +AKR1C3 Inhibitor Anti-proliferative IC50.
[7] abbreviates: anoxic (<0.001% O2), read-out: HCT116-WT Anti-proliferative IC50 Anoxic.
The mark [8] stands for this setting: read-out: HCT116-WT Anti-proliferative IC50 Oxic.

Like-named read-outs stand apart in the source and are kept apart here.

With `CN1CCN(S(=O)(=O)c2cc([N+](=O)[O-])ccc2N(CCBr)CCOS(C)(=O)=O)CC1` [Compound 602, 2-((2-bromoethyl)(2-((4-methylpiperazin-1-yl)sulfonyl)-4-nitrophenyl)amino)ethyl methanesulfonate], the “more cytotoxic in PLC/PRF/5 cells than SN34454” value in data set [1] came to 94 fold. Also, the IC50 in data set [1] (setting [5]) turned out to be 1.19 µM; in data set [1] (setting [6]), 23.7 µM; in data set [2] (setting [7]), 3.51 µM; in data set [2] (setting [8]) it was 4.26 µM.

For `CS(=O)(=O)OCCN(CCBr)c1c(C(=O)NCCO)cc([N+](=O)[O-])cc1[N+](=O)[O-]` [PR-104A, 2-((2-bromoethyl)(2-((2-hydroxyethyl)-carbamoyl)-4,6-dinitrophenyl)amino)ethyl methanesulfonate, reference compound], the IC50 was 108 µM in data set [1] (setting [5]), 181 µM in data set [1] (setting [6]), 2.83 µM in data set [2] (setting [7]) and 55.8 µM in data set [2] (setting [8]). Further, in data set [2], the “Hypoxic Cytotoxicity Ratio (HCR)” value was 20. In data set [3] (Foehrenbacher et al, 2013), the “bystander effect (literature)” value was “substantial bystander effect”.

As to `CN1CCN(C(=O)c2cc([N+](=O)[O-])ccc2N(CCBr)CCBr)CC1` [SN34118, reference compound], the values for the IC50 in data set [1] (setting [5]) and in data set [1] (setting [6]) were 115 µM and 174 µM, respectively. Also, in data set [3] (Silva, MSc Thesis), the “BEE reported in AKR1C3 mixed MCLs” value is 52.7%.

For `CN1CCN(C(=O)c2cc([N+](=O)[O-])ccc2N(CCBr)CCOS(C)(=O)=O)CC1` [SN34454, reference compound], the IC50 in data set [1] (setting [5]) turned out to be 111 µM; in data set [1] (setting [6]) it was 131 µM.

`CN1CCN(S(=O)(=O)c2cc([N+](=O)[O-])ccc2N(CCOS(C)(=O)=O)CCOS(C)(=O)=O)CC1` [Compound 641, ((2-((4-methylpiperazin-1-yl)sulfonyl)-4-nitrophenyl)azanediyl)bis(ethane-2,1-diyl) dimethanesulfonate]: the IC50 in data set [1] (setting [5]) stood at 1.42 µM; in data set [1] (setting [6]), 40.5 µM; in data set [2] (setting [7]) it was 2.52 µM; in data set [2] (setting [8]), 5.91 µM. For the same compound, the “Hypoxic Cytotoxicity Ratio (HCR)” value in data set [2] was found to be 2. The “Solubility, Lactate Buffer, RT” value in data set [4] turned out to be 3.4 mM.
